# Test results from US12552760B2, “Compounds for increasing the nicotinamide adenine dinucleotide in a subject and methods of use thereof” (The Board of Trustees of the University of Illinois, priority 2022, dated 2026).
# “Also recorded” adds a separate entry of the source.
# Assays:
# NAMPT = molecular target: T1, NAMPT (Homo sapiens, UniProt P43490); assay: NAMPT coupled enzyme activity assay (HTS coupled three-enzyme assay); type: biochemical; conditions: dose-response (FIG. 1B)
# T1 construct: His6 (C); made in house
# T1 sequence (P43490 whole entry): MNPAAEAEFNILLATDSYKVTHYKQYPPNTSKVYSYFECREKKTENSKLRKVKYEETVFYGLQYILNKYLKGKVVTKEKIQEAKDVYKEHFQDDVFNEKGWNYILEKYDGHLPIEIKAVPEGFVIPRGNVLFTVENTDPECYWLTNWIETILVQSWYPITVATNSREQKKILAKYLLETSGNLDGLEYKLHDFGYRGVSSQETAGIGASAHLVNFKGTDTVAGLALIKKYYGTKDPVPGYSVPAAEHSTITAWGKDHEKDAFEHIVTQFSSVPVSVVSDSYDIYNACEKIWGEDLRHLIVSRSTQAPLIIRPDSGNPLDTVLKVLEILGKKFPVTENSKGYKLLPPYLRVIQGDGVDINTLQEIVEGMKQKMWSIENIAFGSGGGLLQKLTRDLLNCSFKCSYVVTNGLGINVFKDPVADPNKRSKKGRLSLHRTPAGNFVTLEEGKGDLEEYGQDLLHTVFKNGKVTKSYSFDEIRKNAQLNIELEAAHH
# Source text: NAMPT coupled enzyme activity assay. The NAMPT enzyme assay is based on conditions from Burgos and Schramm and adapted to include a cycling reaction to quantitate NAD^+ production colorimetrically^1. The assay follows the NAMPT-catalyzed production of NMN from substrates NAM and PRPP by coupling NMN formation to the NMNAT reaction, which produces NAD^+ from NMN and ATP. The NAD^+ is then cycled by alcohol dehydrogenase (ADH) and diaphorase to continuously produce WST-1 formazan, which can be detected at 450 nm. Assays are performed at 25° C. in clear 384-well plates, with a final assay volume of 30 μL, and contain the following: 50 mM HEPES, pH 7.5, 5 mM MgCl2, 50 mM NaCl, 0.01% Triton-X 100, 2.5 mM ATP, 40 μM PRPP, 1-500 μM NAM, 1.5 μL WST-1 (Roche Cell Proliferation Reagent), 1 U/mL ADH, 0.083 U/mL diaphorase, 1.5% ethanol, 1% DMSO, 30 nM NAMPT, and 7.4 nM purified human NMNAT1. N-terminal His6-NMNAT1 and C-terminal His6-NAMPT were overexpressed and purified by metal chelate affinity chromatography. Following assay assembly, well signals were measured continuously at 450 nm on a Tecan Infinite M200 plate reader for 1 h with intermittent shaking. Slopes of the linear portions of the reaction progress curves were recorded and corrected for background by subtracting the average slope of control wells containing NAMPT inhibitor FK866.
# A high-throughput screen (HTS) of 22,000 compounds was performed to identify those that augment NAMPT enzymatic activity^38. Screening used a coupled three-enzyme assay to detect conversion of NAM to NAD^+, as previously described by our group^37. […] We also established assays in which to assess the ability of our compounds to mitigate neuronal oxidative stress.
# THP-1 human monocytes = assay: Measurement of cellular NAD^+ levels in THP-1 cell cultures (NAD/NADH-Glo); type: cell-based; conditions: for potency in THP-1 relative to NP-A3-B2 (cellular EC50 not quantifiable): dose response studies; for ability to raise NAD^+ levels compared to the parent compound NP-A3-B2: initial screening, 3 μM, 24 hours, data not shown
# Experimental: Measurement of cellular NAD^+ levels in THP-1 cell cultures. Using FK-866 and NMN as negative and positive controls, respectively, we explored a number of cell lines to select a highly reproducible model system with good dynamic range. We optimized a commercial NAD-glo assay in the THP-1 human leukemic monocyte cell line in 96-well plates, measuring NAD^+ after incubation with test compounds for 24 hours. […] All cells were grown at 37° C., under 5% CO2 in a humidified incubator. Low passage THP-1 cells (37,500 cells/well) were seeded in 96-well plates and incubated at 37° C. and 5% CO2 for 1½ h prior to a 24 h treatment. All compounds were dissolved in DMSO, and final DMSO concentrations never exceeded 1%. The NAD^+ levels in the cells are measured using the NAD^+/NADH-Glo™ assay (Promega). The assays were performed in triplicate for each concentration and the IC50 values were determined from non-linear regression analysis of the dose-response curve generated in GraphPad Prism 9.
# [1] = tested on: HT-22 mouse hippocampal cell line; assay: TNFα-induced ROS in HT-22 cells (MitoSOX); type: cell-based; conditions: for effect on ROS levels across tested concentrations: screened against 1 μg/mL TNFα (FIG. 2A)
# Experimental: (§1) Cell Culture and Drug Treatments. HT22 mouse hippocampal neuronal cells (a gift from the Salk Institute) were grown in Dulbecco's modified Eagle's medium (DMEM) containing 10% FBS and 1× Antibiotic-Antimycotic (ABAM). Cells were maintained in a humidified 5% CO2 atmosphere incubator at 37° C., and were passaged when 60-80% confluent (1-2 days) by removing media, rinsing with phosphate buffered saline (PBS), and enzymatically detaching with trypsin solution. New culture dishes were seeded with ¼ to ½ the cells from the previous dish.
# All assays were performed using cells with passage number 12-50. The inner 60 wells of black-walled (Corning®3603/3604) 96-well plates were treated with poly D-lysine (30 μL/well) making sure to cover the entire well surface for 15-30 seconds and then washed thoroughly with sterile water (3×−200 μL/well). TNFα stock solutions (10 μg/mL, PBS (0.1% BSA)) were made, aliquoted, and stored at −80° C. Glutamate stock solutions were made fresh immediately before assay. All compound stock solutions (10 mM, DMSO) were made and stored at −20° C.
# Cells were plated at a seeding density of 3,000-5,000 cells/well and allowed to incubate overnight. The next day (18-24 hours later) cells were pretreated with N-PAMs, carefully ensuring equivalent vehicle (DMSO/PBS) composition in each well. After 18-24 hours, stressors (glutamate or TNFα) were treated. Live cell count, ROS level, and total cell count were then assessed after another 18-24 hours.
# ROS Detection. ROS levels were quantified using MitoSOX Red Mitochondrial Superoxide Indicator (Invitrogen). At treatment endpoint, the cell culture media was removed and replaced with phosphate buffered saline (PBS) containing 1 μM calcein-AM, 5 μM MitoSOX, and 10 μg/mL Hoechst dyes. Cells were incubated for 30-45 minutes and then dye-containing PBS was dumped and replaced with 100 μL/well fresh PBS. The plate was immediately analyzed in the Celigo Imaging Cytometer using the Live-Dead-Total protocol, where MitoSOX was used in place of propidium iodide. The cell counts and fluorescence intensities for living (calcein), MitoSOX-stained, and total (Hoechst) were acquired. MitoSOX average mean fluorescence intensity (“dead” average mean intensity) was used to quantify mitochondrial ROS. All readouts used were transformed into fold-change over vehicle treatment for visualization.
# We set out to design assays representing the connection between OS and the multifaceted pathophysiology of aging and ND. We assessed multiple treatments in several cell lines to model OS induced by diverse factors such as neuroinflammatory signaling, neurotransmitter signaling, and direct oxidant species. Assay development highlighted the neuronal HT-22 mouse hippocampal cell line as most robust for these purpose s, and inflammatory cytokine TNFα as being a reliable and disease-relevant method for inducing ROS generation.
# [2] = tested on: HT-22 mouse hippocampal cell line; assay: Glutamate-induced ROS in HT-22 cells (MitoSOX); type: cell-based; conditions: 75 mM glutamate
# Experimental: as §1
# All assays were performed using cells with passage number 12-50. […]
# Cells were plated at a seeding density of 3,000-5,000 cells/well and allowed to incubate overnight. […] Live cell count, ROS level, and total cell count were then assessed after another 18-24 hours.
# ROS Detection. ROS levels were quantified using MitoSOX Red Mitochondrial Superoxide Indicator (Invitrogen). […] The plate was immediately analyzed in the Celigo Imaging Cytometer using the Live-Dead-Total protocol, where MitoSOX was used in place of propidium iodide. The cell counts and fluorescence intensities for living (calcein), MitoSOX-stained, and total (Hoechst) were acquired. MitoSOX average mean fluorescence intensity (“dead” average mean intensity) was used to quantify mitochondrial ROS. All readouts used were transformed into fold-change over vehicle treatment for visualization.
# GMC101 worms = conditions: 1 mM, 1-8 days; Sorrentino, V. et al. 2017; cited from earlier work
# APPSwe/PSEN1dE9 mice = conditions: 400 mg/kg/d (p.o.) 10 weeks; Sorrentino, V. et al. 2017; cited from earlier work
# [3] = tested on: Tg2576/PGC-1α knockout mice; conditions: 250 mg/kg/d (p.o) 3 months; Gong, B. et al. 2013; cited from earlier work
# [4] = tested on: 3xTgAD, and 3xTgAD/Polβ^+/− mice; conditions: 12 mM in drinking water p.o. 6 months; Hou, Y. et al. 2018; cited from earlier work
# [5] = tested on: hSOD1^G93A mouse derived astrocytes and motor neurons; conditions: NR or NMN, 5 mM, 24-72 h; Harlan, B. A. et al. 2019; cited from earlier work
# Csb^m/m mice = conditions: 500 mg/kg/d (i.p.) 1 week; Scheibye-Knudsen, M. et al. 2014; cited from earlier work
# [6] = dose response study, 30 μM (FIG. 1A)
smiles,measurement,setting,value
"COc1ccc(CN(CCC2(C(C)C)CCOC(C)(C)C2)C(=O)c2cnc[nH]2)cc1 (stereo not drawn) [JGB-1-147, N-(2-(4-isopropyl-2,2-dimethyltetrahydro-2H-pyran-4-yl)ethyl)-N-(4-methoxybenzyl)-1H-imidazole-5-carboxamide]",IC50,NAMPT; NAMPT inhibition,5.32 µM
same,Amax,NAMPT,0.25 fold
same,effect on NAMPT activity,NAMPT,inhibitory activity; also recorded: inhibits NAMPT
"COc1ccc(CN(CCC2(C(C)C)CCOC(C)(C)C2)C(=O)c2cccs2)cc1 (stereo not drawn) [JGB-1-137, N-(2-(4-isopropyl-2,2-dimethyltetrahydro-2H-pyran-4-yl)ethyl)-N-(4-methoxybenzyl)thiophene-2-carboxamide]",NAD^+ production in THP-1,"THP-1 human monocytes; SAR summary, thiophene replacement of the R^2 furan (FIGS. 4 and 5)",significantly improved NAD^+ production
same,potency in THP-1 relative to NP-A3-B2 (cellular EC50 not quantifiable),THP-1 human monocytes,improved potency
same,ability to raise NAD^+ levels compared to the parent compound NP-A3-B2,THP-1 human monocytes,significantly greater ability to raise NAD^+ levels
same,effect on ROS levels across tested concentrations,[1],dose-dependent downward trend in ROS levels
"CC(C)C1(CCN(Cc2ccc(N(C)C)cc2)C(=O)c2ccco2)CCOC(C)(C)C1 (stereo not drawn) [JGB-1-155, N-(4-(dimethylamino)benzyl)-N-(2-(4-isopropyl-2,2-dimethyltetrahydro-2H-pyran-4-yl)ethyl)furan-2-carboxamide]",EC50,NAMPT; NAMPT activation,3.41 µM
same,activity in THP-1,THP-1 human monocytes; SAR summary (FIGS. 4 and 5),improved activity
same,potency in THP-1 relative to NP-A3-B2 (cellular EC50 not quantifiable),THP-1 human monocytes,improved potency
same,NAD^+ fold over control,THP-1 human monocytes; [6],1.88 fold
same,increase in NAD^+ over control,THP-1 human monocytes; [6],88%
same,ability to raise NAD^+ levels compared to the parent compound NP-A3-B2,THP-1 human monocytes,significantly greater ability to raise NAD^+ levels
same,ROS attenuation relative to other analogs and the hit,[1]; 1 μg/mL TNFα (FIG. 2A),outperformed all other analogs and the hit in ROS attenuation
same,activity in HT-22,"[1]; SAR summary, over the 4-methoxy compounds (FIGS. 4 and 5)",improved activity
same,reduction of TNFα-induced ROS,"[1]; further replicates, 20 μM and 40 μM (FIG. 2B)",highly significant reduction of TNFα-induced ROS
same,effect on ROS levels across tested concentrations,[1],dose-dependent downward trend in ROS levels
same,ROS-reducing activity against glutamate insult,[2],dose-dependent ROS-reducing activity
same,ROS levels relative to vehicle treated control,[2]; 20 μM and 40 μM (FIG. 2D),decreased ROS levels below that of the vehicle treated control
"COc1ccc(CN(CCC2(C(C)C)CCOC(C)(C)C2)C(=O)c2ccsc2)cc1 (stereo not drawn) [JGB-1-127, N-(2-(4-isopropyl-2,2-dimethyltetrahydro-2H-pyran-4-yl)ethyl)-N-(4-methoxybenzyl)thiophene-3-carboxamide]",potency in THP-1 relative to NP-A3-B2 (cellular EC50 not quantifiable),THP-1 human monocytes,improved potency
same,ability to raise NAD^+ levels compared to the parent compound NP-A3-B2,THP-1 human monocytes,significantly greater ability to raise NAD^+ levels
O=C(NCc1ccncc1)Nc1ccc(S(=O)(=O)N2CC3CCC(C2)O3)cc1 [SBI-797812],effect on ROS levels across tested concentrations,[1],no significant effects on ROS at any concentration tested
NC(=O)c1ccc[n+]([C@@H]2O[C@H](CO)[C@@H](O)[C@H]2O)c1 [NR],health- and lifespan of worms,GMC101 worms,Increased health-
same,proteotoxicity and aggregation of Aβ,GMC101 worms,Reduced
same,Aβ aggregation,APPSwe/PSEN1dE9 mice,Reduced Aβ
same,impaired memory,APPSwe/PSEN1dE9 mice,Enhanced
same,mitochondrial function,APPSwe/PSEN1dE9 mice,Improved
same,NAD^+ levels and PGC-1α expression,[3],Increased NAD^+
same,cognitive (novel object recognition) performance,[3],Improved
same,synaptic plasticity,[3],Improved synaptic
same,NAD^+/NADH ratio,[4],Increased
same,"learning, memory, motor function, and anxiety",[4],Improved
same,neurogenesis,[4],Increased
same,neuroinflammation,[4],Decreased
same,p-Tau levels,[4],Decreased p-Tau
same,synaptic plasticity,[4],Restored synaptic
same,Nrf2 mediated Antioxidant Response Element activation,[5],Increased Nrf2
same,"cerebellar NAD^+ ATP, mitochondrial function",Csb^m/m mice,Rescued
same,"gene profile associated with oxidative stress, DNA repair, mitochondrial function",Csb^m/m mice,Normalized gene
"CC(C)C1(CCN(Cc2ccc3[nH]ccc3c2)C(=O)c2ccco2)CCOC(C)(C)C1 (stereo not drawn) [JGB-1-134, N-((1H-indol-5-yl)methyl)-N-(2-(4-isopropyl-2,2-dimethyltetrahydro-2H-pyran-4-yl)ethyl)furan-2-carboxamide]",ability to raise NAD^+ levels compared to the parent compound NP-A3-B2,THP-1 human monocytes,significantly greater ability to raise NAD^+ levels
same,effect on ROS levels at 40 μM,"[1]; 1 μg/mL TNFα, 40 μM compound (FIG. 2A)",trended toward ROS mitigation
same,effect on ROS levels across tested concentrations,[1],little effect until 40 μM
